Laboratory results reported in US9675605B2, “Substituted naphthyridine and quinoline compounds as MAO inhibitors” (DART NEUROSCIENCE (CAYMAN) LTD., priority 2013, dated 2017).

How the values were obtained:
Human recombinant MAO-A = Human recombinant MAO-A (Homo sapiens (Human), UniProt P21397); assay: MAO enzymatic assay, MAO-B selectivity (MAO-A/MAO-B); type: biochemical; settings: selectivity for MAO-B over MAO-A; values given as ranges
Method: (§1) The MAO enzymatic assay was performed according to the fluorometric method described by Matsumoto and colleagues (Matsumoto et al., Clin. Biochem. 1985, 18, 126-129) with the following modifications. Human recombinant MAO-A and MAO-B expressed in insect cells were used. For both assays, test compound and/or vehicle were preincubated with purified enzyme in phosphate buffer pH 7.4 for 15 minutes at 37° C. The reaction was initiated by addition of […] kynuramine. Following a 60 minute incubation period, the reaction was terminated by the addition of 6 N NaOH. The amount of 4-hydroxyquinoline that formed was determined by spectrofluorimetrically at 325 nm/465 nm.
(§2) Results were converted to percent inhibition, and the EC50 (M) for each reaction was determined using the XLfit program from IDBS (ID Business Solutions Ltd., 2 Occam Court, Surrey Research Park, Guildford, Surrey, GU2 7QB UK). The EC50 represents the concentration of a compound where 50% of its maximal effect is observed. The pEC50 is defined as the negative logarithm of the EC50; a higher pEC50 value therefore corresponds to higher potency in the assay.

Human recombinant MAO-B = Human recombinant MAO-B (Homo sapiens (Human), UniProt P27338); assay: MAO-B enzymatic assay (fluorometric, kynuramine); type: biochemical; settings: human recombinant MAO-B expressed in insect cells, 50 μm kynuramine, pH 7.4, 37° C.; values given as ranges; read-out: MAO-B (pEC50) (converted)
Sequence of Human recombinant MAO-B (P27338 whole entry): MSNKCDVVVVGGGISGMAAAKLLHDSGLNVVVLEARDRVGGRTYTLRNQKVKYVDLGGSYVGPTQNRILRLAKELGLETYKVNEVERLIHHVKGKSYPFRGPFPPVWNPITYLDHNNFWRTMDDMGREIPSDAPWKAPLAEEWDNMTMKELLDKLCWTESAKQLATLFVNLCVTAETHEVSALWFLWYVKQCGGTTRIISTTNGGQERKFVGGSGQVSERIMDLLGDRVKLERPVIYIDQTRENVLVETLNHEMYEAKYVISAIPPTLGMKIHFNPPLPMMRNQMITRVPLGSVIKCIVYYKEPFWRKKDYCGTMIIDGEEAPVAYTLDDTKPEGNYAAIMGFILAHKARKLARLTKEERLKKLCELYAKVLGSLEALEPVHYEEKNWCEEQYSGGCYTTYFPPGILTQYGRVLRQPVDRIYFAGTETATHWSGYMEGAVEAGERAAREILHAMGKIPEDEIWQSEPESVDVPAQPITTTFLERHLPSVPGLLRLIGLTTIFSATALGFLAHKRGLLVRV
Method: as §1, §2
Representative compounds of the invention were evaluated in the MAO-B enzymatic assay. Typically, the compounds of the invention show MAO-B inhibitory properties at a concentration of 0.1 to 10 μM, typically at 5-100%.

Sequence of Human recombinant MAO-A (P21397 whole entry): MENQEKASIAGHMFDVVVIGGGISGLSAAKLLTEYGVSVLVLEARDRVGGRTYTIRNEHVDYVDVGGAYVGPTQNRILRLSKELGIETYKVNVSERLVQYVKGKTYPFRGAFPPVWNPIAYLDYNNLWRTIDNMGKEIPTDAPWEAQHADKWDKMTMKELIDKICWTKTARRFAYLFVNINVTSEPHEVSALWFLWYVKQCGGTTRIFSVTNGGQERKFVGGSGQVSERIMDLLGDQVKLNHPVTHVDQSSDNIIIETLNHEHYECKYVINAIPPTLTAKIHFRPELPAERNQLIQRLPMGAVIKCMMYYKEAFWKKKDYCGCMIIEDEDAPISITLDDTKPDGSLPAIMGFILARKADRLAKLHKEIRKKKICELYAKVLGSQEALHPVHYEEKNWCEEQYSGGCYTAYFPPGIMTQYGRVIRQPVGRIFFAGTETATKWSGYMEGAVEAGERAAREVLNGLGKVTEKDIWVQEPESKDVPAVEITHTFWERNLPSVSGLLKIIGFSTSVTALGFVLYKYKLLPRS

| MAO-A/MAO-B (Human recombinant MAO-A) | EC50 (Human recombinant MAO-B) | Compound |
| --- | --- | --- |
| >10-100 | – | CCOC(=O)c1cnc2cc(OCc3ccc(C)cc3)ccc2c1 [Example 8, Ethyl 7-((4-methylbenzyl)oxy)quinoline-3-carboxylate] |
| >100-200 | – | CCOC(=O)c1cnc2cc(OCc3cccc(C)c3)ccc2c1 [Example 7, Ethyl 7-((3-methylbenzyl)oxy)quinoline-3-carboxylate] |
| >100-200 | – | CCOC(=O)c1cnc2cc(OCc3cccc(OC)c3)ccc2c1 [Example 9, Ethyl 7-((3-methoxybenzyl)oxy)quinoline-3-carboxylate] |
| >10-100 | – | CCOC(=O)c1cnc2cc(OCc3cccc([N+](=O)[O-])c3)ccc2c1 [Example 18, Ethyl 7-((3-nitrobenzyl)oxy)quinoline-3-carboxylate] |
| 1-10 | – | CCOC(=O)c1cnc2cc(OCc3cccc(F)c3)ccc2c1 [Example 4, Ethyl 7[(3-fluorophenyl)methoxy]quinoline-3-carboxylate] |
| >10-100 | – | CCOC(=O)c1cnc2cc(OCc3cccc(Cl)c3)ccc2c1 [Example 3, Ethyl 7-[(3-chlorophenyl)methoxy]quinoline-3-carboxylate] |
| >100-200 | – | CCOC(=O)c1cnc2cc(OCc3cccc(C(F)(F)F)c3)ccc2c1 [Example 5, Ethyl 7-((3-(trifluoromethyl)benzyl)oxy)quinoline-3-carboxylate] |

Continued, compound first:

| Compound | MAO-A/MAO-B (Human recombinant MAO-A) | EC50 (Human recombinant MAO-B) |
| --- | --- | --- |
| CCOC(=O)c1cnc2cc(OCc3cc(F)cc(C(F)(F)F)c3)ccc2c1 [Example 13, Ethyl 7-((3-fluoro-5-(trifluoromethyl)benzyl)oxy)quinoline-3-carboxylate] | >100-200 | – |
| CCOC(=O)c1cnc2cc(OCc3ccc(F)cc3)ccc2c1 [Example 2, Ethyl 7-[(4-fluorophenyl)methoxy]quinoline-3-carboxylate] | >100-200 | – |
| CCOC(=O)c1cnc2cc(OCc3cc(F)c(F)c(F)c3)ccc2c1 [Example 16, Ethyl 7-((3,4,5-trifluorobenzyl)oxy)quinoline-3-carboxylate] | >200 | – |
| CCOC(=O)c1cnc2cc(OCc3ccc(Cl)cc3)ccc2c1 [Example 1, Ethyl 7-[(4-chlorophenyl)methoxy]quinoline-3-carboxylate] | >10-100 | – |
| CCOC(=O)Cc1cnc2cc(OCc3cccc(Cl)c3)ccc2c1 [Example 51, Ethyl 2-(7-((3-chlorobenzyl)oxy)quinolin-3-yl)acetate] | – | 0.1 to 1 µM |
| CCOC(=O)c1cnc2cc(OCc3ccc(C(F)(F)F)cc3)ccc2c1 [Example 6, Ethyl 7-((4-(trifluoromethyl)benzyl)oxy)quinoline-3-carboxylate] | >10-100 | – |
| CCOC(=O)c1cnc2cc(OCc3ccc([N+](=O)[O-])cc3)ccc2c1 [Example 11, Ethyl 7-((4-nitrobenzyl)oxy)quinoline-3-carboxylate] | 1-10 | – |
| CCOC(=O)c1cnc2cc(OCCc3cccc(F)c3)ccc2c1 [Example 24, Ethyl 7-(3-fluorophenethoxy)quinoline-3-carboxylate] | >10-100 | – |
| CCOC(=O)c1cnc2cc(OCc3ccc(F)c(C(F)(F)F)c3)ccc2c1 [Example 12, Ethyl 7-((4-fluoro-3-(trifluoromethyl)benzyl)oxy)quinoline-3-carboxylate] | >200 | – |
| CCOC(=O)c1cnc2cc(OCCc3cccc(Cl)c3)ccc2c1 [Example 25, Ethyl 7-(3-chlorophenethoxy)quinoline-3-carboxylate] | >10-100 | – |
| CC(C)(O)c1cnc2cc(OCc3ccc(F)cc3)ccc2c1 [Example 27, 2-(7-((4-Fluorobenzyl)oxy)quinolin-3-yl)propan-2-ol] | >200 | – |
| CCOC(=O)c1cnc2cc(OCc3ccc(F)c(Cl)c3)ccc2c1 [Example 17, Ethyl 7-((3-chloro-4-fluorobenzyl)oxy)quinoline-3-carboxylate] | >100-200 | – |
| CCOC(=O)c1cnc2cc(OCc3cc(F)cc(F)c3)ccc2c1 [Example 15, Ethyl 7-((3,5-difluorobenzyl)oxy)quinoline-3-carboxylate] | >200 | – |
| CCOC(=O)c1cnc2cc(OCc3ccc(OC)cc3)ccc2c1 [Example 10, Ethyl 7-((4-methoxybenzyl)oxy)quinoline-3-carboxylate] | >10-100 | – |
| CCOC(=O)c1cnc2cc(OCc3ccc(F)c(F)c3)ccc2c1 [Example 14, Ethyl 7-((3,4-difluorobenzyl)oxy)quinoline-3-carboxylate] | >200 | – |
